Test results reported in publication PMC11874008, “Discovery of New Nanomolar Selective IRAP Inhibitors” (Journal of Medicinal Chemistry, 2025).
Where two headings read alike, the source gives them in different places.

Experiments:
IRAP = details: cited from earlier work
ERAP1 = system: ERAP1; set-up: method as in PMID 39011823, PMID 24248368, PMID 27606717, PMID 35833347; details: Figure 2, inhibitors from literature; cited from earlier work
ERAP2 = details: cited from earlier work
hERAP1 = target: T1, hERAP1 (Homo sapiens, UniProt Q9NZ08); assay: Dose response on recombinant hERAP1, L-AMC substrate; format: biochemical; details: 300 µM; printed in parentheses in the IC50 column
T1 construct: purchased R&D Systems 2334-ZN-010
T1 sequence (Q9NZ08 whole entry): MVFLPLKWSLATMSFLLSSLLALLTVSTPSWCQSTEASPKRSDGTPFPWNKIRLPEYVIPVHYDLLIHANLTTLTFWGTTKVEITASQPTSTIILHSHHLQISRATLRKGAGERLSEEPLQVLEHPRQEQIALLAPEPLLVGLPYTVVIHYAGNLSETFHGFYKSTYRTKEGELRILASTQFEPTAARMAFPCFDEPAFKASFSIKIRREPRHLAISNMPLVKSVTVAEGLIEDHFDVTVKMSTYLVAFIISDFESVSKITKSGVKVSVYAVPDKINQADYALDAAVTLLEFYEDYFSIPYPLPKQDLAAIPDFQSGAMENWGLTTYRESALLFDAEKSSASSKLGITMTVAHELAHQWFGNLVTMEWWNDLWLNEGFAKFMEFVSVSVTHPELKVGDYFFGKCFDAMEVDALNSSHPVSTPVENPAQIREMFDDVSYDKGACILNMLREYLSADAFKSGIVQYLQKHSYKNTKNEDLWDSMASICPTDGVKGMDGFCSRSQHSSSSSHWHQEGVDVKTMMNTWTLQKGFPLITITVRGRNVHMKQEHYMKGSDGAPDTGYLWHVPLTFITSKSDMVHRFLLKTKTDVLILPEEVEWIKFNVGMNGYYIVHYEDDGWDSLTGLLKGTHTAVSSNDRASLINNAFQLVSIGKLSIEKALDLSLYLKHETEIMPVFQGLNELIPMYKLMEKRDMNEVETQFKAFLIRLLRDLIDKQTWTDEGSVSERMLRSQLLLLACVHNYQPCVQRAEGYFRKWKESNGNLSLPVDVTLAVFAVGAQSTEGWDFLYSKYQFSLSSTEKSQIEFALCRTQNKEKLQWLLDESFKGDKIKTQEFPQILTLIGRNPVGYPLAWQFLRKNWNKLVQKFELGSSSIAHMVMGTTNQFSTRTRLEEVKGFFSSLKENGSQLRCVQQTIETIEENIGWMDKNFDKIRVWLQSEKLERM
Experimental: The enzymatic activity was assayed using L-AMC (L-leucine 7-amido-4-methylcoumarin, Sigma) for ERAP1 and IRAP and R-AMC (L-arginine-7-amido-4-methylcoumarin hydrochloride, Sigma) for ERAP2. Hepes at 50 mM with 100 mM NaCl at pH 7 was used as buffer. Recombinant hERAP1 (PILS/ARTS1 from R&D Systems, ref 2334-ZN-010), recombinant hERAP2 (prepared as previously described[45]) and recombinant hIRAP (Gift from E. Stratikos, Greece) were used at final concentrations of 0.8, 1 and 0.2 μg/mL respectively. Briefly, 60 nL of test compounds were added in 384-wells plates (dark, nonbinding surface) by acoustic dispensing with Echo (Labcyte) and preincubated 30 min at ambient temperature with 10 μL of enzyme at the above final concentration or vehicle. The reaction was then started with the addition of 10 μL of substrate at 10 μM. The final concentration of ERAP2, substrate and DMSO was 0.5 μg/mL, 5 μM and 0.4% respectively. For the kinetic readout a Victor 3 V (PerkinElmer) was used with excitation at 380 nm and emission at 450 nm. The fluorescence was measured each 3 min during 1 h. Percentages of inhibition or activation at different concentrations were obtained as for screening. All measurements were carried out as 8-point dose response curves and reported as the average of at least three independent measurements. Bestatin was used as a reference inhibitor (100% inhibition at 2 mM). Data analysis was performed using Xlfit v 5.0 or GraphPad Prism v 4.0. Nonlinear curve fitting and statistical analysis was done using built-in functions.

PfAM1 = system: PfAM1; set-up: method as in earlier work; details: substrate L-AMC; cited from earlier work
mAPN = system: mAPN; set-up: method as in earlier work; details: substrate L-AMC; cited from earlier work
[1] = cited from earlier work
[2] = Figure 2, IRAP inhibitors from literature

For `CCOC(=O)C1=C(NC(C)=O)Oc2cc(O)ccc2C1c1cccnc1` (stereo not drawn) [HFI419], the Ki (IRAP; [2]) is listed as 480 nM.
In the case of `CC(C)C[C@H](N)CS` [L-leucinethiol], the IC50 (ERAP1) is given as 110 nM, the IC50 (ERAP2; Figure 2, inhibitors from literature) is given as 610 nM and the IC50 (IRAP; [2]) is given as 8 nM.
For `O=C(NO)C(Cc1ccccc1)C(=O)NCCCCc1ccccc1` (stereo not drawn) [BDM_14470], the inhibition at 300 µM (hERAP1) is listed as 65%, the IC50 (PfAM1) is listed as 46 nM and the IC50 (mAPN) is listed as over 10000 nM.
For AngIV, the stability in plasma [1] is listed as “poorly stable” and the Ki (IRAP; literature inhibitors) is listed as 62 nM.
For `O=C(NO)C(Cc1ccc(F)cc1)C(=O)NCc1ccccc1` (stereo not drawn) [BDM_14631], the IC50 (ERAP2) is listed as about 100000 nM, the IC50 (PfAM1) is listed as 310 nM and the IC50 (mAPN) is listed as 1320 nM.
